Data from patent publication US20060211575A1, “CONTROL FOR PLANT AND PLANT PRODUCT PATHOGENS” (W. NEUDORFF GMBH KG, priority 2005, published 2006).

How the values were obtained:
Format in all cases: in vivo
[1] = system: powdery mildew (Sphaerotheca fuliginea); assay: Greenhouse test of betaines for controlling powdery mildew on dandelion
Procedure: The purpose of this test was to evaluate the control of powdery mildew (Sphaerotheca fuliginea) on dandelion (Taraxacum officinale). Compositions of C12 betaine, Coco betaine, C16 betaine, C18:1 betaine, Coco amidopropyl betaine, C18:1 amidopropyl betaine, and Coco sulfo betaine were formed using the commercially available forms of the betaines as disclosed herein. Additionally, a sulfur standard was prepared using a commercially available form of sulfur (Red Ball EM-53) from International Chem. Inc., USA. For each treatment, twelve 20 cm diameter dandelions were used, and at the start of the test, all of the leaves were trimmed off of the plants. The test evaluated disease development on fully formed leaves. Each composition was sprayed to run off the plants, and resprayed 3 times every 7 days. The plants were also reinoculated by placing diseased dandelions amongst the test plants.

[2] = system: rust (Cronartium ribicola); assay: Field test of betaines to control rust on black currants; conditions: 0.10% ai, black currant, resprayed every 7 to 10 days
From the text: The purpose of this test was to evaluate 6 betaines for controlling rust (Cronartium ribicola) on black currant. Following formation of compositions of Coco betaine, C16 betaine, C18:1 betaine, Coco amidopropyl betaine, C18:1 amidopropyl betaine, and Coco sulfo betaine having varying betaine concentrations (using the commercially available forms of the betaines as discussed herein and a water solvent), and a copper octanoate standard (formed from a commercially available form entitled “Soap Shield” from Gardens Alive, Ind., USA), the compositions/solution were sprayed to run off onto eight-year-old black currants. Every treatment had nine plants, and the plants were resprayed every 7 to 10 days.

[3] = system: rose blackspot (Diplocarpon rosae); assay: Field test of betaines to control blackspot on Altissimo roses; conditions: 0.2%
From the text: The purpose of this test was to evaluate various betaines for controlling rose blackspot (Diplocarpon rosae) on Altissimo roses under field conditions. Following formation of compositions of cetyl betaine, cocobetaine, and coco amidopropyl betaine using the commercially available forms of the betaines as disclosed herein as well as formation of a standard 0.2% sulfur solution, the compositions/solution were sprayed to run off onto mature Altissimo rose plants. Nine plants were used in each treatment, and the plants were resprayed every 7 to 10 days for over a 100 day period.
Table 1, below, illustrates the results obtained from treatments of cetyl betaine at various concentrations ranging from about 0.020% ai to 0.100% ai, as well as cocobetaine at a 0.05% ai concentration and coco amiodopropyl betaine at a 0.10% ai concentration.

Row | Compound | Leaf Area Colonized by Powdery Mildew (%) ([1]; 0.1% ai) | Rust Sori Per 9 Plants [2] | Leaf Area Colonized by Powdery Mildew (%) ([1]; 0.2% ai) | Leaflets with Blackspot (%) ([3]; 75 DAT) | Leaflets with Blackspot (%) ([3]; 102 DAT)
1 | CCCCCCCC/C=C\CCCCCCCC(=O)NCCC[N+](C)(C)CC(=O)[O-] [C18:1 amidopropyl betaine, oleamidopropyl betaine] | 0.9 | 2121 |  |  | 
2 | CCCCCCCC/C=C\CCCCCCCC[N+](C)(C)CC(=O)[O-] [C18:1 betaine, oleyl betaine] | 2.3 | 550 |  |  | 
3 | S1SSSSSSS1 [Sulfur] |  |  | 0.0 | 0.8 | 1.5
4 | Copper octanoate [reference compound] |  | 135 |  |  | 
